Data reported in the supplement of paper PMC11061612.

Experiments:
Experiment in all cases: Bliss excess, mean over the matrix (fraction); higher = more synergy
[1] = test system: MEG-01 (Chronic Myelogenous Leukemia)
How it was run: (§1)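 After 24 hours at 37°C and 5% CO2 in 1536-well plates, cells in DMEM/F12 or RPMI plus 10% FBS received two-drug dose matrices for 72 hours. Viability came from CellTiter-Glo 2.0 luminescence and was scaled as inhibition, anchored at 0 by vehicle wells and at 1 by blank wells. Combination Emax is taken as the second-highest inhibition in the matrix, and Bliss excess as the observed combination effect less EA + EB − EA·EB, with EA and EB the single-agent effects.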

[2] = test system: HCC38 (Breast Carcinoma)
How it was run: as §1

[3] = test system: SK-MEL-1 (Melanoma)
How it was run: as §1

[4] = test system: DOK (Oral Cavity Carcinoma)
How it was run: as §1

[5] = test system: SW48 (Colorectal Carcinoma)
How it was run: as §1

[6] = test system: D-392MG (Glioblastoma)
How it was run: as §1

[7] = test system: CS1 (Chondrosarcoma)
How it was run: as §1

[8] = test system: SW948 (Colorectal Carcinoma)
How it was run: as §1

[9] = test system: CAL-39 (Other Solid Carcinomas)
How it was run: as §1

[10] = test system: SLVL (B-Cell Non-Hodgkin's Lymphoma)
How it was run: as §1

[11] = test system: P31-FUJ (Acute Myeloid Leukemia)
How it was run: as §1

[12] = test system: MSTO-211H (Mesothelioma)
How it was run: as §1

[13] = test system: SK-UT-1 (Other Solid Carcinomas)
How it was run: as §1

[14] = test system: BICR78 (Oral Cavity Carcinoma)
How it was run: as §1

[15] = test system: Saos-2 (Osteosarcoma)
How it was run: as §1

[16] = test system: HCT-116 (Colorectal Carcinoma)
How it was run: as §1

[17] = test system: SK-LMS-1 (Other Solid Carcinomas)
How it was run: as §1

[18] = test system: NOMO-1 (Acute Myeloid Leukemia)
How it was run: as §1

[19] = test system: EW-22 (Ewing's Sarcoma)
How it was run: as §1

[20] = test system: YT (Other Blood Carcinomas)
How it was run: as §1

| SMILES | Bliss excess [1] | Bliss excess [2] | Bliss excess [3] | Bliss excess [4] | Bliss excess [5] | Bliss excess [6] | Bliss excess [7] | Bliss excess [8] | Bliss excess [9] | Bliss excess [10] | Bliss excess [11] | Bliss excess [12] | Bliss excess [13] | Bliss excess [14] | Bliss excess [15] | Bliss excess [16] | Bliss excess [17] | Bliss excess [18] | Bliss excess [19] | Bliss excess [20] |
| --- | --- | --- | --- | --- | --- | --- | --- | --- | --- | --- | --- | --- | --- | --- | --- | --- | --- | --- | --- | --- |
| C[C@@H](Nc1cc(F)cc(F)c1)c1cc(C(=O)N(C)C)cc2c(=O)cc(N3CCOCC3)oc12 [AZD8186] + C1CN(CCC1(C(=O)N[C@@H](CCO)C2=CC=C(C=C2)Cl)N)C3=NC=NC4=C3C=CN4 [AZD5363] (first compound max 10 µM, 7x7, partner max 10 µM) | -0.0906 | -0.0395 | -0.039 | -0.0231 | -0.024 | -0.122 | -0.0711 | 0.0414 | 0.0492 | 0.0553 | -0.03 | 0.0272 | 0.0224 | -0.0269 | 0.0104 | -0.0362 | 0.0606 | 0.0385 | -0.0197 | -0.0175 |
| O=C(c1cc(Cc2n[nH]c(=O)c3ccccc23)ccc1F)N1CCN(C(=O)C2CC2)CC1 [Olaparib] + CC1(C)CCC(CN2CCN(c3ccc(C(=O)NS(=O)(=O)c4ccc(NCC5CCOCC5)c([N+](=O)[O-])c4)c(Oc4cnc5[nH]ccc5c4)c3)CC2)=C(c2ccc(Cl)cc2)C1 [Venetoclax] (first compound max 10 µM, 7x7, partner max 1 µM) | -0.0377 | -0.0247 | -0.023 | -0.0426 | -0.0239 | -0.0886 | -0.0621 | -0.0528 | -0.0425 | 0.0864 | -0.0121 | -0.0264 | 0.0047 | -0.0733 | -0.0289 | -0.0156 | -0.012 | 0.0666 | 0.0348 | 0.0335 |
| CN(CCO)CC[C@H](CSc1ccccc1)Nc1ccc(S(=O)(=O)NC(=O)c2ccc(N3CCC([C@@H](O)c4ccccc4-c4ccc(Cl)cc4)CC3)cc2)cc1S(=O)(=O)C(F)(F)F [AZD4320] + CS(=O)(=O)CCNCc1ccc(-c2ccc3ncnc(Nc4ccc(OCc5cccc(F)c5)c(Cl)c4)c3c2)o1 [Lapatinib] (first compound max 1 µM, 7x7, partner max 10 µM) | 0.103 | 0.0173 | -0.0444 | 0.0402 | 0.14 | -0.0269 | 0.0095 | 0.0049 | 0.0372 | 0.0675 | 0.109 | 0.0275 | 0.006 | 0.0251 | 0.083 | 0.0085 | 0.0357 | 0.0709 | 0.0967 | 0.0643 |
| N#Cc1cnc(Nc2cc(NC[C@H]3CNCCO3)c(C(F)(F)F)cn2)cn1 [SRA737] + Nc1ccn([C@@H]2O[C@H](CO)[C@@H](O)C2(F)F)c(=O)n1 [Gemcitabine] (first compound max 10 µM, 7x7, partner max 0.3 µM) | -0.0324 | -0.0054 | 0.0048 | 0.0191 | 0.0107 | 0.0579 | 0.0679 | 0.079 | 0.0461 | 0.0004 | 0.057 | -0.0082 | 0.0162 | 0.068 | 0.0276 | 0.0063 | 0.0202 | -0.0169 | -0.0202 | 0.0694 |
| C[C@@H](Oc1cc(-c2cnn(C3CCNCC3)c2)cnc1N)c1c(Cl)ccc(F)c1Cl [Crizotinib] + Cn1cnc2c(F)c(Nc3ccc(Br)cc3Cl)c(C(=O)NOCCO)cc21 [Selumetinib] (first compound max 10 µM, 7x7, partner max 10 µM) | 0.0179 | -0.0447 | -0.0618 | 0.017 | -0.0323 | -0.0718 | -0.0203 | 0.0137 | 0.0132 | -0.0414 | -0.0781 | 0.0294 | 0.0041 | 0.0006 | -0.0337 | 0.0323 | 0.0367 | 0.0157 | -0.0226 | -0.0587 |
| N#Cc1cnc(Nc2cc(NC[C@H]3CNCCO3)c(C(F)(F)F)cn2)cn1 [SRA737] + O=c1[nH]cc(F)c(=O)[nH]1 [5-Fluorouracil] (first compound max 10 µM, 7x7, partner max 20 µM) | -0.0518 | 0.0257 | -0.0178 | 0.0382 | -0.0588 | -0.0369 | -0.0251 | -0.0314 | 0.0175 | -0.0551 | -0.0034 | 0.0301 | -0.0052 | 0.0904 | -0.0179 | 0.0445 | -0.0143 | -0.0007 | 0.0416 | 0.0012 |
| C=CCn1c(=O)c2cnc(Nc3ccc(N4CCN(C)CC4)cc3)nc2n1-c1cccc(C(C)(C)O)n1 [AZD1775] + CCc1c2c(nc3ccc(O)cc13)-c1cc3c(c(=O)n1C2)COC(=O)[C@]3(O)CC [SN-38] (first compound max 1 µM, partner max 0.3 µM) | -0.0251 | -0.0765 | 0.0154 | -0.0096 | -0.0052 | -0.0704 | -0.0705 | 0.141 | -0.0225 | -0.0701 | 0.0049 | -0.0619 | -0.032 | -0.0403 | -0.0514 | -0.0302 | -0.0441 | -0.0208 | -0.0286 | -0.0418 |
| CC1(C)CCC(CN2CCN(c3ccc(C(=O)NS(=O)(=O)c4ccc(NCC5CCOCC5)c([N+](=O)[O-])c4)c(Oc4cnc5[nH]ccc5c4)c3)CC2)=C(c2ccc(Cl)cc2)C1 [Venetoclax] + CS(=O)(=O)CCNCc1ccc(-c2ccc3ncnc(Nc4ccc(OCc5cccc(F)c5)c(Cl)c4)c3c2)o1 [Lapatinib] (first compound max 1 µM, 7x7, partner max 10 µM) | -0.0101 | -0.0355 | 0.0097 | -0.0301 | 0.0163 | -0.0732 | -0.0662 | -0.0407 | -0.0062 | 0.017 | 0.0811 | -0.019 | -0.0286 | -0.0451 | -0.0131 | -0.0369 | -0.0127 | 0.0105 | 0.0031 | 0.0123 |
| C[C@@H]1COCCN1c1cc(C2([S@](C)(=N)=O)CC2)nc(-c2ccnc3[nH]ccc23)n1 [AZD6738] + C1CC(C1)(C(=O)[O-])C(=O)[O-].N.N.[Pt+2] [Carboplatin] (first compound max 10 µM, 7x7, partner max 10 µM) | -0.0513 | -0.0516 | -0.048 | 0.0086 | -0.0577 | -0.0311 | -0.0674 | -0.0659 | -0.0128 | -0.0419 | -0.0078 | -0.0319 | -0.0214 | -0.0459 | -0.0302 | 0.0014 | -0.032 | -0.0037 | -0.0301 | -0.0397 |
| Cc1c2c(nn1C)CSCc1cc(n(C)n1)CSc1cc(c3ccccc3c1)OCCCc1c(C(=O)O)n(C)c3c-2c(Cl)ccc13 [AZD5991] + CC(=O)O[C@H]1C(=O)[C@@]2(C)[C@H]([C@H](OC(=O)c3ccccc3)[C@]3(O)C[C@H](OC(=O)[C@H](O)[C@@H](NC(=O)c4ccccc4)c4ccccc4)C(C)=C1C3(C)C)[C@]1(OC(C)=O)CO[C@@H]1C[C@@H]2O [Paclitaxel] (first compound max 1 µM, 7x7, partner max 3 µM) | 0.12 | -0.0632 | -0.0045 | -0.0004 | -0.0091 | 0.046 | -0.012 | -0.0421 | -0.0154 | -0.0181 | -0.0253 | 0.0035 | 0.008 | -0.0412 | 0.0358 | -0.0211 | -0.0569 | -0.0215 | -0.0122 | -0.0159 |
